Reference: patent publication US20020082273A1, “Agents for use in the treatment of alzheimer's disease” (priority 1998, published 2002)
“And” between values parts separate entries of the source, which are not always exact repeats. Equal entries are not always repeated. “Also recorded” adds a separate entry of the source. Where two headings read alike, the source gives them in different places.

Tests used:
[1] = cited from earlier work; for LogK, Co: Table 1, K=[ML]/[M][L]
[2] = cited from earlier work; for LogK, Mg: Table 1, K=[ML]/[M][L]
[3] = cited from earlier work; for LogK, Zn: Table 1, K=[ML]/[M][L]
[4] = cited from earlier work; for LogK, Fe: Table 1, K=[ML]/[M][L]
[5] = cited from earlier work; for LogK, Al: Table 1, K=[ML]/[M][L]
[6] = cited from earlier work; for LogK, Cu: K=[ML]/[M][L]
[7] = cited from earlier work; for LogK, Ca: Table 1, K=[ML]/[M][L]
[8] = test system: Aβ deposits of AD-affected brain; test: Extraction (solubilization) of Aβ from post-mortem AD brain tissue homogenates, western blot densitometry; type: biochemical, human
Protocol: Identical regions of frontal cortex (0.5 g) from post-mortem brains of individuals with AD, as well as non-AD conditions, were homogenized in TBS, […] ±metal chelators.
0.5 g of prefrontal cortex was dissected and homogenized in PBS ±chelator as indicated. The homogenate was then centrifuged (100,000 g) and the supernatant removed, and a sample taken for western blot assay using anti-Aβ specific antibodies after Tricine PAGE. Densitometry was performed against synthetic peptide standards.
Densitometry of Aβ western blots (FIGS. 19A-19C) was performed for a series of 6 AD brain samples homogenized in the presence of chelators as indicated.
Next the ability of clioquinol to extract Aβ deposits from human brain was examined. […] Fragments of prefrontal cortex from individual post-mortem samples with the histopathological diagnosis of AD were homogenized in PBS, pH 7.4, and then pelleted after centrifugation. The pellets were then washed with agitation twice for 30 minutes, 4° C., with PBS or PBS containing clioquinol (100% =0.8 μM clioquinol). The suspension was then pelleted (10,000 g for 30 minutes) and the supernatant removed (S1) for western blot analysis using Aβ-specific antibodies (illustrated). The pellet was treated a second time in this experiment with agitation and centrifugation, and the second supernatant (S2) analysed.
Soluble Aβ (ng/g tissue) was determined as described. Total Aβ was determined following formic acid extraction of otherwise untreated tissue.
Suitable quantities of gray matter from each subject were minced to serve as pools of homogenous tissue. […] To obtain the soluble fraction, the homogenates were centrifuged at 100,000× g for 30 min (Beckman J180, Beckman instruments, Fullerton, California) and the supernatant collected in 1 ml aliquots and stored on ice or immediately frozen at −70° C. In each experiment, all protein was precipitated from 1 ml of supernatant from each treatment group using 1:5 ice cold 10% trichloracetic acid and pelleted in a bench top microfuge (Heraeus, Osteroder, Germany) at 10,000× g. The remaining pellet was frozen at −70° C.
Precipitated protein was subjected to SDS polyacrylamide gel electrophoresis (SDS-PAGE) on Novex pre-cast 10-20% Tris-Tricine gels followed by Western transfer onto 0.2 μm nitrocellulose membrane (Biorad, Hercules, Calif.). […] Each gel included two or more lanes containing known quantities of synthetic Aβ which served as internal reference standards. Blot images were captured by a Relisys scanner with transparency adapter (Teco Information Systems, Taiwan, ROC) and densitometry conducted using the NIH Image 1.6 program (National Institutes for Health, USA. Modified for PC by Scion Corporation, Frederick, Md.), calibrated using a step diffusion chart. For quantitation of Aβ in brain extracts, the internal reference standards of synthetic Aβ were utilized to produce standard curves from which values were interpolated.

[9] = Residual metals in post-centrifugation pellets of brain homogenates (ICP-AES); type: biochemical, human; details: Table 6

Compound: c1ccc(-c2ccnc3c2ccc2c(-c4ccccc4)ccnc23)cc1 [Bathophenanthroline]
- LogK, Co [1]: 0
- LogK, Mg [2]: 0
- LogK, Zn [3]: 6.9
- LogK, Fe [4]: 5.6
- LogK, Al [5]: 0
- LogK, Cu ([6]; Table 1): 8.8
- LogK, Ca [7]: 0

Compound: bathocuproinedisulfonic acid [BC]
- LogK, Co [1]: 4.2
- Effect of Chelators upon extraction of Aβ (% change from control) [8]: 301% and 400%
- efficiency in extracting Aβ [8]: highly efficient
- LogK, Mg [2]: 0
- LogK, Zn [3]: 4.1
- LogK, Fe [4]: 0
- LogK, Al [5]: 0
- LogK, Cu (Cu^+) ([6]; Table 1, value for Cu^+): 19.1
- LogK, Ca [7]: 0

Compound: O=C(O)CN(CCN(CC(=O)O)CC(=O)O)CCN(CC(=O)O)CC(=O)O [DTPA, diethylenetriaminopenta acetic acid]
- log stability constant ([6]; FIG. 34C legend, metal not given, Cu^2+ implied): 21.1

Compound: O=C(O)CN(CCOCCOCCN(CC(=O)O)CC(=O)O)CC(=O)O [EGTA]
- LogK, Co [1]: 12.4
- Stability constant logK10, Co ([1]; Table 5, NIST database): 12.35
- Effect of Chelators upon extraction of Aβ (% change from control) ([8]; 0.1 mM chelator, mean n = 6 AD brain samples, above PBS extraction alone): 207%
- Effect of Chelators upon extraction of Aβ (% change from control) ([8]; 2.0 mM chelator, mean n = 6 AD brain samples, above PBS extraction alone): 46%
- Aβ signal versus PBS control ([8]; EGTA 2 mM): virtually abolished the signal for Aβ; also recorded: diminution in Aβ signal
- efficiency in extracting Aβ ([8]; neutral saline buffer, TPEN 5 μM): less efficient
- LogK, Mg [2]: 5.3
- Stability constant logK10, Mg ([2]; Table 5, NIST database): 5.28
- LogK, Zn [3]: 12.6
- Stability constant logK10, Zn ([3]; Table 5, NIST database): 12.6
- LogK, Fe [4]: 11.8
- Stability constant logK10, Fe ([4]; Table 5, NIST database): 11.8
- LogK, Al [5]: 13.9
- Stability constant logK10, Al ([5]; Table 5, NIST database): 13.9
- Residual Al in extracted pellet ([9]; chelator 0.001 mM): 43 mg/kg
- Residual Ca in extracted pellet ([9]; chelator 0.001 mM): 862 mg/kg
- Residual Cu in extracted pellet ([9]; chelator 0.001 mM): 12 mg/kg
- Residual Fe in extracted pellet ([9]; chelator 0.001 mM): 281 mg/kg
- Residual Mg in extracted pellet ([9]; chelator 0.001 mM): 237 mg/kg
- Residual Zn in extracted pellet ([9]; chelator 0.001 mM): 49 mg/kg
- Residual Al in extracted pellet ([9]; chelator 0.004 mM): 73 mg/kg
- Residual Ca in extracted pellet ([9]; chelator 0.004 mM): 795 mg/kg
- Residual Cu in extracted pellet ([9]; chelator 0.004 mM): 11 mg/kg
- Residual Fe in extracted pellet ([9]; chelator 0.004 mM): 247 mg/kg
- Residual Mg in extracted pellet ([9]; chelator 0.004 mM): 228 mg/kg
- Residual Zn in extracted pellet ([9]; chelator 0.004 mM): 53 mg/kg
- Residual Al in extracted pellet ([9]; chelator 0.01 mM): 61 mg/kg
- Residual Ca in extracted pellet ([9]; chelator 0.01 mM): 675 mg/kg
- Residual Cu in extracted pellet ([9]; chelator 0.01 mM): 13 mg/kg
- Residual Fe in extracted pellet ([9]; chelator 0.01 mM): 272 mg/kg
- Residual Mg in extracted pellet ([9]; chelator 0.01 mM): 213 mg/kg
- Residual Zn in extracted pellet ([9]; chelator 0.01 mM): 54 mg/kg
- Residual Al in extracted pellet ([9]; chelator 0.04 mM): 104 mg/kg
- Residual Ca in extracted pellet ([9]; chelator 0.04 mM): 1402 mg/kg
- Residual Cu in extracted pellet ([9]; chelator 0.04 mM): 13 mg/kg
- Residual Fe in extracted pellet ([9]; chelator 0.04 mM): 438 mg/kg
- Residual Mg in extracted pellet ([9]; chelator 0.04 mM): 247 mg/kg
- Residual Zn in extracted pellet ([9]; chelator 0.04 mM): 71 mg/kg
- Residual Al in extracted pellet ([9]; chelator 2.0 mM): 62 mg/kg
- Residual Ca in extracted pellet ([9]; chelator 2.0 mM): 519 mg/kg
- Residual Cu in extracted pellet ([9]; chelator 2.0 mM): 13 mg/kg
- Residual Fe in extracted pellet ([9]; chelator 2.0 mM): 238 mg/kg
- Residual Mg in extracted pellet ([9]; chelator 2.0 mM): 191 mg/kg
- Residual Zn in extracted pellet ([9]; chelator 2.0 mM): 27 mg/kg
- Residual Al in extracted pellet ([9]; chelator 5.0 mM): 27 mg/kg
- Residual Ca in extracted pellet ([9]; chelator 5.0 mM): 455 mg/kg
- Residual Cu in extracted pellet ([9]; chelator 5.0 mM): 12 mg/kg
- Residual Fe in extracted pellet ([9]; chelator 5.0 mM): 230 mg/kg
- Residual Mg in extracted pellet ([9]; chelator 5.0 mM): 168 mg/kg
- Residual Zn in extracted pellet ([9]; chelator 5.0 mM): 18 mg/kg
- LogK, Cu ([6]; Table 1): 17.6
- Stability constant logK10, Cu ([6]; Table 5, NIST database): 17.57
- LogK, Ca [7]: 10.9
- Stability constant logK10, Ca ([7]; Table 5, NIST database): 10.86

Compound: CC(C)(S)[C@@H](N)C(=O)O [Penicillamine]
- LogK, Co [1]: 0
- LogK, Mg [2]: 0
- LogK, Zn [3]: 10.2
- LogK, Fe [4]: 0
- LogK, Al [5]: 0
- LogK, Cu ([6]; Table 1): 18.2
- LogK, Ca [7]: 0
